In ChEMBL document CHEMBL1201862, “PubChem BioAssay data set” (2004):
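In this assay, cells in 96-well plates receive the compound at five concentrations for 48 hours. Endpoints are linearly interpolated between the surrounding concentrations. Here, GI50 denotes the concentration required for 50% inhibition of growth.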 Calls of active or inactive are those of the source. No stated cut-off is given here; in the data, active = GI50 up to about 1.1 µM and inactive = higher.

Tests used:
Experiment in all cases: growth of human tumour cells (NCI), 48 h
[1] = tested on: BT-549
[2] = tested on: OVCAR-5
[3] = tested on: Hs-578T
[4] = tested on: EKVX
[5] = tested on: HOP-62
[6] = tested on: UACC-257
[7] = tested on: MCF7
[8] = tested on: NCI-H522
[9] = tested on: SW-620
[10] = tested on: NCI/ADR-RES
[11] = tested on: DU-145
[12] = tested on: HCT-15
[13] = tested on: LOX IMVI
[14] = tested on: HL-60
[15] = tested on: OVCAR-4
[16] = tested on: UO-31
[17] = tested on: Malme-3M
[18] = tested on: HCC 2998
[19] = tested on: SK-MEL-2
[20] = tested on: SK-MEL-5
[21] = tested on: SNB-75
[22] = tested on: RPMI-8226
[23] = tested on: 786-0
[24] = tested on: COLO 205
[25] = tested on: HOP-92
[26] = tested on: MOLT-4
[27] = tested on: K562
[28] = tested on: CCRF-CEM
[29] = tested on: CAKI-1
[30] = tested on: HT-29
[31] = tested on: TK-10
[32] = tested on: MDA-MB-435
[33] = tested on: U-251
[34] = tested on: SF-539
[35] = tested on: SF-268
[36] = tested on: A498
[37] = tested on: RXF 393
[38] = tested on: NCI-H460
[39] = tested on: ACHN
[40] = tested on: A549
[41] = tested on: SF-295
[42] = tested on: HCT-116
[43] = tested on: SK-MEL-28
[44] = tested on: OVCAR-3
[45] = tested on: SN12C
[46] = tested on: SK-OV-3
[47] = tested on: NCI-H23
[48] = tested on: M14
[49] = tested on: PC-3
[50] = tested on: T47D
[51] = tested on: OVCAR-8
[52] = tested on: KM12
[53] = tested on: SNB-19
[54] = tested on: SR
[55] = tested on: MDA-MB-231
[56] = tested on: MDA-N
[57] = tested on: IGROV-1
[58] = tested on: NCI-H226
[59] = tested on: UACC-62

Which results are given for COc1cnc2oc3ccc(O)cc3c2c1-c1ccccc1?
GI50 [1]: > 100 µM (inactive); GI50 [2]: 24.1 µM (inactive); GI50 [3]: > 100 µM (inactive); GI50 [4]: > 100 µM (inactive); GI50 [5]: 24 µM (inactive); GI50 [6]: 88.5 µM (inactive); GI50 [7]: 39.7 µM (inactive); GI50 [8]: > 100 µM (inactive); GI50 [9]: > 100 µM (inactive); GI50 [10]: 30.3 µM (inactive); GI50 [11]: > 100 µM (inactive); GI50 [12]: > 100 µM; GI50 [13]: > 100 µM (inactive); GI50 [14]: > 100 µM (inactive); GI50 [15]: > 100 µM (inactive); GI50 [16]: 66.7 µM (inactive); GI50 [17]: 40 µM (inactive); GI50 [18]: 27.7 µM (inactive); GI50 [19]: > 100 µM (inactive); GI50 [20]: 61.9 µM (inactive); GI50 [21]: > 100 µM (inactive); GI50 [22]: > 100 µM (inactive); GI50 [23]: 21.9 µM (inactive); GI50 [24]: 30.6 µM (inactive); GI50 [25]: > 100 µM (inactive); GI50 [26]: > 100 µM (inactive); GI50 [27]: 22.1 µM (inactive); GI50 [28]: 59.3 µM (inactive); GI50 [29]: > 100 µM (inactive); GI50 [30]: 85.1 µM (inactive); GI50 [31]: > 100 µM (inactive); GI50 [32]: > 100 µM (inactive); GI50 [33]: > 100 µM (inactive); GI50 [34]: > 100 µM (inactive); GI50 [35]: 4 µM (inactive); GI50 [36]: > 100 µM (inactive); GI50 [37]: > 100 µM (inactive); GI50 [38]: > 100 µM (inactive); GI50 [39]: > 100 µM (inactive); GI50 [40]: > 100 µM (inactive); GI50 [41]: 83 µM (inactive); GI50 [42]: 15.2 µM (inactive); GI50 [43]: > 100 µM (inactive); GI50 [44]: 4.27 µM (inactive); GI50 [45]: > 100 µM (inactive); GI50 [46]: > 100 µM (inactive); GI50 [47]: 44.7 µM (inactive); GI50 [48]: 18.7 µM (inactive); GI50 [49]: > 100 µM (inactive); GI50 [50]: 3.65 µM (inactive); GI50 [51]: 55.3 µM (inactive); GI50 [52]: 83.2 µM (inactive)

With COc1ccc([C@H]2[C@H](C)C3=Nc4ccccc4CN32)cc1 as the compound, how does the GI50 [1] read?
Its GI50 is > 100 µM (inactive).

What about the GI50 [53] of the same compound?
The GI50 was > 100 µM (inactive).

And the GI50 [2]?
Its GI50 is > 100 µM (inactive).

What about the GI50 [3] of the same compound?
Its GI50 is > 100 µM (inactive).

What about the GI50 [4] of the same compound?
The GI50 was 96.8 µM (inactive).

What about the GI50 [5] of the same compound?
Its GI50 is > 100 µM (inactive).

And the GI50 [6]?
Its GI50 is > 100 µM (inactive).

And the GI50 [7]?
Its GI50 is 59.7 µM (inactive).

And the GI50 [8]?
The GI50 was > 100 µM (inactive).

What about the GI50 [9] of the same compound?
The GI50 was 39.9 µM (inactive).

What about the GI50 [10] of the same compound?
Its GI50 is > 100 µM (inactive).

And the GI50 [11]?
The GI50 was > 100 µM (inactive).

And the GI50 [12]?
Its GI50 is 76.2 µM.

And the GI50 [13]?
The GI50 was 39.8 µM (inactive).

And the GI50 [14]?
Its GI50 is 29.9 µM (inactive).

And the GI50 [15]?
Its GI50 is > 100 µM (inactive).

What about the GI50 [16] of the same compound?
Its GI50 is > 100 µM (inactive).

What about the GI50 [17] of the same compound?
Its GI50 is > 100 µM (inactive).

What about the GI50 [18] of the same compound?
Its GI50 is 41.9 µM (inactive).

What about the GI50 [19] of the same compound?
Its GI50 is > 100 µM (inactive).

And the GI50 [20]?
Its GI50 is 40.8 µM (inactive).

What about the GI50 [22] of the same compound?
The GI50 was 33.7 µM (inactive).

And the GI50 [23]?
Its GI50 is 54.1 µM (inactive).

What about the GI50 [24] of the same compound?
The GI50 was 45.1 µM (inactive).

What about the GI50 [25] of the same compound?
Its GI50 is 56.5 µM (inactive).

And the GI50 [26]?
The GI50 was 36.8 µM (inactive).

And the GI50 [27]?
The GI50 was 39.2 µM (inactive).

What about the GI50 [54] of the same compound?
The GI50 was 36.8 µM (inactive).

And the GI50 [29]?
Its GI50 is > 100 µM (inactive).

What about the GI50 [30] of the same compound?
Its GI50 is 35.8 µM (inactive).

And the GI50 [31]?
The GI50 was > 100 µM (inactive).

What about the GI50 [32] of the same compound?
The GI50 was 31.4 µM (inactive).

What about the GI50 [33] of the same compound?
Its GI50 is 51.5 µM (inactive).

What about the GI50 [34] of the same compound?
Its GI50 is 39.3 µM (inactive).

What about the GI50 [55] of the same compound?
The GI50 was > 100 µM (inactive).

What about the GI50 [35] of the same compound?
The GI50 was 98.9 µM (inactive).

What about the GI50 [36] of the same compound?
Its GI50 is > 100 µM (inactive).

What about the GI50 [37] of the same compound?
Its GI50 is > 100 µM (inactive).

What about the GI50 [38] of the same compound?
Its GI50 is 31.6 µM (inactive).

What about the GI50 [39] of the same compound?
The GI50 was 86.9 µM (inactive).

And the GI50 [40]?
The GI50 was 55.1 µM (inactive).

And the GI50 [41]?
Its GI50 is 49.4 µM (inactive).

And the GI50 [42]?
The GI50 was 33.8 µM (inactive).

And the GI50 [43]?
Its GI50 is 33.2 µM (inactive).

And the GI50 [56]?
Its GI50 is 20.7 µM (inactive).

What about the GI50 [44] of the same compound?
Its GI50 is > 100 µM (inactive).

What about the GI50 [45] of the same compound?
Its GI50 is 63 µM (inactive).

What about the GI50 [47] of the same compound?
Its GI50 is 69.8 µM (inactive).

And the GI50 [48]?
The GI50 was 42.6 µM (inactive).

What about the GI50 [57] of the same compound?
Its GI50 is 63.7 µM (inactive).

What about the GI50 [58] of the same compound?
The GI50 was 85.1 µM (inactive).

And the GI50 [49]?
The GI50 was > 100 µM (inactive).

What about the GI50 [51] of the same compound?
Its GI50 is 71.8 µM (inactive).

And the GI50 [52]?
The GI50 was 42.6 µM (inactive).

What about the GI50 [59] of the same compound?
The GI50 was 57.5 µM (inactive).

Which results are given for Cc1nc2ccc(S(=O)(=O)Nc3ccc(Cl)cc3)cc2c(=O)n1NC(=O)CNc1ccc(Cl)cc1?
GI50 [1]: > 100 µM (inactive); GI50 [53]: > 100 µM (inactive); GI50 [2]: > 100 µM (inactive); GI50 [3]: > 100 µM (inactive); GI50 [4]: > 100 µM (inactive); GI50 [5]: > 100 µM (inactive); GI50 [6]: > 100 µM (inactive); GI50 [7]: > 100 µM (inactive); GI50 [8]: > 100 µM (inactive); GI50 [9]: > 100 µM (inactive); GI50 [10]: > 100 µM (inactive); GI50 [11]: > 100 µM (inactive); GI50 [12]: > 100 µM; GI50 [13]: > 100 µM (inactive); GI50 [14]: > 100 µM (inactive); GI50 [15]: > 100 µM (inactive); GI50 [16]: > 100 µM (inactive); GI50 [17]: > 100 µM (inactive); GI50 [18]: > 100 µM (inactive); GI50 [19]: > 100 µM (inactive); GI50 [21]: > 100 µM (inactive); GI50 [22]: > 100 µM (inactive); GI50 [23]: > 100 µM (inactive); GI50 [24]: > 100 µM (inactive); GI50 [25]: > 100 µM (inactive); GI50 [26]: > 100 µM (inactive); GI50 [27]: > 100 µM (inactive); GI50 [54]: > 100 µM (inactive); GI50 [28]: > 100 µM (inactive); GI50 [29]: > 100 µM (inactive); GI50 [30]: > 100 µM (inactive); GI50 [31]: > 100 µM (inactive); GI50 [32]: > 100 µM (inactive); GI50 [33]: > 100 µM (inactive); GI50 [34]: > 100 µM (inactive); GI50 [55]: > 100 µM (inactive); GI50 [35]: > 100 µM (inactive); GI50 [38]: > 100 µM (inactive); GI50 [39]: > 100 µM (inactive); GI50 [40]: > 100 µM (inactive); GI50 [41]: > 100 µM (inactive); GI50 [42]: > 100 µM (inactive); GI50 [43]: > 100 µM (inactive); GI50 [56]: > 100 µM (inactive); GI50 [44]: > 100 µM (inactive); GI50 [45]: > 100 µM (inactive); GI50 [46]: > 100 µM (inactive); GI50 [47]: > 100 µM (inactive); GI50 [48]: > 100 µM (inactive); GI50 [57]: > 100 µM (inactive); GI50 [58]: > 100 µM (inactive); GI50 [49]: > 100 µM (inactive); GI50 [51]: > 100 µM (inactive); GI50 [52]: 64 µM (inactive); GI50 [59]: > 100 µM (inactive)
